{"source": "patent US7393951B2", "about": "“Antisense oligonucleotide having anticancerous activity” (Good Will Okinawa Co., Ltd., priority 2004, dated 2008)", "key": {"HeLa cells [1]": {"system": "HeLa cells", "assay": "Influence on growth of HeLa human cancer cells, modified MTT method (WST-1 + 1-methoxy PMS)", "format": "cell-based", "description": "The influence of each oligo on cell growth was examined. Specifically, HeLa cells, which are human cancer cells in a DMEM medium containing 10% heat-inactivated fetal calf serum (FCS), were seeded at a density of 1500 cells/well in a 96-well plate. After culture for 24 hours, the culture solution was exchanged with a culture solution containing each oligo at a concentration of 10 μM and 1% FCS. The cells were cultured at 37° C. in the presence of CO2. Thereafter, the ratio of living cells [survival ratio of cells (%)] was examined over 4 days at 24-hour intervals (absorbance: 450 to 650 nm) by a modified MTT method (WST-1+1-methoxy PMS) using a cell counting kit (manufactured by DOJINDO). Here, a culture solution exchanged with a culture solution not containing any oligo was used as a control (this applies hereinafter).\nThen, an experiment was conducted in a similar manner, setting the concentration of the oligo 3 in the culture solutions at 2.5, 5, 10 and 20 μM respectively, to examine the relationship between the inhibition of growth of human cancer cells and the concentration."}, "[2]": {"assay": "Toxicity in mice after intravenous administration (body weight, symptoms)", "format": "in vivo", "conditions": "female mice, 20 μg per g of the body weight", "description": "The toxicity of the oligo 3 was examined. Specifically, the oligo 3 was dissolved in a physiological saline so as to have a concentration of 1 mg/mL and administered intravenously into female mice (5-week-old) in a dose of 20 μg per g of the body weight. On the day of administration (Day 0) and 2, 5, 10, 12 and 14 days after the administration, the weight of each mouse was determined.\nFIG. 6 is a graph showing the influence of the oligo 3 on increase of the body weight of the mouse in the case of intravenous administration in a dose of 20 μg/(body weight) g. In the graph, each datum is shown in mean±SE. Here, the data were obtained by using 7 mice for the oligo 3 and 6 mice for the control, respectively."}, "HeLa cells [3]": {"system": "HeLa cells", "assay": "Influence on DNA synthesis of cells, incorporation of [3H]-methylthymidine", "format": "cell-based, human", "conditions": "for incorporation ratio of [3H]-methylthymidine into the human cancer cells to the control: HeLa, 0.1% FCS, 24 hours", "description": "The influence of each oligo on DNA synthesis of cells was examined by observing the incorporation of [^3H]-methylthymidine into cells. Specifically, the cells were cultured for 24 hours in the same manner as described above, and then the culture solution was exchanged with a culture solution containing each oligo at a concentration of 5, 10 or 20 μM and 0.1% FCS. After 18 hours, 1 μCi/mL [^3H]-methylthymidine was added to the culture solution, and the cells were cultured for another 6 hours. After culture, the specific radioactivity of the cells after predetermined treatment was determined with a liquid scintillation counter."}, "HeLa cells [4]": {"system": "HeLa cells", "assay": "Induction of cell death of human cancer cells, microscopy and Giemsa staining", "format": "cell-based", "conditions": "20 μM", "description": "Further, the induction of cell death of the human cancer cells by the oligo 3 was examined. Specifically, 3,000 HeLa cells were seeded in a slide chamber. After culture for 24 hours, the culture solution was exchanged with a culture solution containing the oligo 3 at a concentration of 20 μM. […] Furthermore, 24 hours after addition of the oligo 3, the cells were washed with phosphate buffered saline (PBS) and then subjected to Giemsa staining to determine the numbers of living cells and dead cells, and the survival ratio of the cells (%) was determined from the obtained numbers of the cells. Here, the oligo 5 was used additionally as a control."}}, "data": [{"substance": "oligo 3: phosphorothioate antisense DNA oligonucleotide CCTCA, to positions 47-51 of 7SL RNA of SRP (SEQ ID NO: 1) (DNA, all phosphorothioate, methylation of C not given here)", "values": [{"measurement": "inhibitory effect on growth of the human cancer cells, compared among oligos 1 to 5", "setting": "HeLa cells [1]; HeLa, 10 μM, over 4 days", "result": "highest inhibitory effect"}, {"measurement": "concentration dependence of inhibition of growth of human cancer cells", "setting": "HeLa cells [1]; HeLa, 2.5, 5, 10 and 20 μM", "result": "increased in proportion to the concentration"}, {"measurement": "survival ratio of the cells to the control", "setting": "HeLa cells [1]; HeLa, concentration series 2.5, 5, 10 and 20 μM (concentration of these values not given), Day 1", "result": 44.4, "unit": "%"}, {"measurement": "survival ratio of the cells to the control", "setting": "HeLa cells [1]; HeLa, concentration series 2.5, 5, 10 and 20 μM (concentration of these values not given), Day 2", "result": 45.1, "unit": "%"}, {"measurement": "survival ratio of the cells to the control", "setting": "HeLa cells [1]; HeLa, concentration series 2.5, 5, 10 and 20 μM (concentration of these values not given), Day 3", "result": 55.5, "unit": "%"}, {"measurement": "survival ratio of the cells to the control", "setting": "HeLa cells [1]; HeLa, concentration series 2.5, 5, 10 and 20 μM (concentration of these values not given), Day 4", "result": 63.8, "unit": "%"}, {"measurement": "survival ratio of the cells to the control", "setting": "HeLa cells [1]; HeLa, oligo 10 μM, 1% FCS, Day 1", "result": 49.6, "unit": "%"}, {"measurement": "survival ratio of the cells to the control", "setting": "HeLa cells [1]; HeLa, oligo 10 μM, 1% FCS, Day 2", "result": 62.7, "unit": "%"}, {"measurement": "survival ratio of the cells to the control", "setting": "HeLa cells [1]; HeLa, oligo 10 μM, 1% FCS, Day 3", "result": 71.6, "unit": "%"}, {"measurement": "survival ratio of the cells to the control", "setting": "HeLa cells [1]; HeLa, oligo 10 μM, 1% FCS, Day 4", "result": 71.1, "unit": "%"}, {"measurement": "generation of symptoms versus control", "setting": "[2]", "result": "not recognized"}, {"measurement": "toxicity", "setting": "[2]", "result": "does not exhibit toxicity particularly"}, {"measurement": "influence on increase of the body weight versus control", "setting": "[2]; Day 0 to 14", "result": "no difference between the oligo 3 and the control"}, {"measurement": "incorporation of [3H]-methylthymidine into the cells, compared among oligos 1 to 5", "setting": "HeLa cells [3]; HeLa, 5, 10 or 20 μM", "result": "suppressed to the lowest level"}, {"measurement": "incorporation ratio of [3H]-methylthymidine into the human cancer cells to the control", "setting": "HeLa cells [3]; oligo 5 μM", "result": 57.5, "unit": "%"}, {"measurement": "incorporation ratio of [3H]-methylthymidine into the human cancer cells to the control", "setting": "HeLa cells [3]; oligo 10 μM", "result": 32.0, "unit": "%"}, {"measurement": "incorporation ratio of [3H]-methylthymidine into the human cancer cells to the control", "setting": "HeLa cells [3]; oligo 20 μM", "result": 16.6, "unit": "%"}, {"measurement": "survival ratio of the cells (living vs dead cells, Giemsa staining)", "setting": "HeLa cells [4]; 24 hours after addition", "result": 30.8, "unit": "%"}, {"measurement": "microscopic observation of cultured cells", "setting": "HeLa cells [4]; about 18 hours after addition", "result": "a process of from shrinkage of cells to cell death was observed"}]}]}
